Earlier results, collected in patent US12686008B2, “Microfluidic device having specifically designed detection chambers” (Bifrost Biosystems Inc., priority 2020, dated 2026).
Where no end group is shown, it is not given here.

Details: literature values, refs [18, 19]; test organism not given

Row | Substance | MIC [µM]
1 | VDKPPYLPRPRPPRRIYNR-NH2 [Oncocin] | 0.42
2 | LL-37 | 1.5
